Experiments:
Format in all cases: cell-based
[1] = system: ZO-1, claudin-3 and occludin; experiment: Subcellular distribution of TJ proteins (immunofluorescence, TX-100 soluble/insoluble fractions)
Procedure: Approximately 1×10^4 cells were grown to confluence on 0.4 μm 12-well Transwell™ filters (Costar, Mass.). After overnight serum starvation, cells were treated with or without 50 nM CT for 60 min, fixed with methanol and incubated with primary antisera (rabbit anti-ZO-1 IgG, Zymed, Calrsbad, Calif.; Claudin-3, CTR-FLAG). Immunostaining was visualized after incubation with TRITC-labelled secondary antibody (1:500). Controls with either non-immune goat IgG or no primary antisera were used in all studies. Digital photographs were taken with Retiga 1300 camera connected to a Nikon Optiphot-2 microscope equipped for epifluorescence, the images were captured at different wavelengths for TRITC and DAPI, were given red and blue pseudo colors respectively, and analyzed using IP Lab™ image analysis program.
Confluent 100 mm plates of each PC sublines were serum starved overnight, and treated with or without 50 nM CT for various periods. Soluble extract (cytosolic) was obtained by incubating cells with 10 mM Tris-HCl, pH-7.4 (containing 150 mM NaCl, 2 mM CaCl2, protease-phosphatase inhibitors cocktail, 1% Nonidet P-40 and 1% Triton-X-100) for 30 min with occasional agitation. After washing the plates with TBS (containing protease inhibitors), the insoluble fraction (plasma membrane-associated) was scraped out from the plates with TBS containing 0.5% SDS, 1% Nonidet P-40, protease inhibitors. The triton X-100-insoluble fraction was collected after homogenizing and centrifuging at 14,000×g for 5 min at 4 C, and protein content of the supernatants was determined using Bio-Rad Reagent (Bio-Rad, Hercules, Calif.).
The lysate fractions were boiled for 5 min in 2× Laemmli buffer. The proteins were fractionated by SDS-PAGE electrophoresis, and electrically transferred to a nitrocellulose membrane. The blots were incubated the appropriate antisera followed by HRP-conjugated secondary antibody; and the blots were developed with ECL. To control for protein loading and transfer, the blots were stripped, and reprobed with either β-actin (insoluble) or α-tubulin (soluble) antibody. The same experiment was repeated two more times.
To test whether CT-mediated loss of TJ functionality is caused by disassembly of TJs, subcellular distribution of key TJ proteins was examined. Polarized PC-3CTRwt cells were treated with 50 nM CT for 30 min, and then processed for immunofluorescence with anti-FLAG (CTR), anti-ZO-1 and anti-claudin-3 antibodies.
It is known that junctional proteins are functional only when they are at cell-cell contacts on the membrane (Shin et al., 2006). Therefore, the subcellular distribution of TJ proteins was analyzed by immunoblotting TX-soluble (cytoplasmic) and TX-insoluble (membrane) fractions of cell lysates. […] The endocytosis of TJ proteins was rapid, and increased progressively throughout the experimental period of four hours. Specifically, translocation of ZO-1 from the insoluble to the soluble compartment was quicker and observed within 1 min of CT stimulus. Similar translocation of occludin was observed after ten min, and that of claudin-3 after 30 min of CT stimulus.
To test whether specific PKA inhibitors abrogate CT-induced TJ disassembly, two specific, well-characterized PKA inhibitors, mPKI and H-89, were used. PC-3CTRwt cells were treated with CT (50 nM for 30 min) in the presence of mPKI (100 nM) or H-89 (10 μM). Either of these inhibitors was added 15 min prior to the addition of CT. […]

[2] = system: PC-3V cells; experiment: Paracellular permeability (PCP), TRITC-dextran diffusion; conditions: 50 nM CT
Procedure: (§1) For PCP measurements, cells were grown to confluence on Transwell filters. Tetra methyl rhodamine-dextran (1 mg/ml, ˜4 kDa, Sigma) was added to the upper chamber. Fluorescence of the lower chamber medium was measured in Modulus Microplate Reader (Turner Biosystems) at various time intervals.
(§2) TJs form a barrier that regulates the movement of ions, solutes and growth factors between cells. To detect whether CT affects the barrier, the diffusion of fluorophore-conjugated dextran was measured across polarized PC cell line monolayers, a procedure called paracellular permeability (PCP). FIG. 2B depicts CTR-C PDZ-binding motif mutation and tight junction (TJ) disruption as measured using PCP. Polarized PC-3V, PC-3-CTRwt and PC-3CTRΔESS cells were treated with or without 50 nM CT, and PCP determined by diffusion of ˜4 kDa TRITC-conjugated dextran from the upper to the lower chamber in one hour. The results are expressed as μg/ml/hour of TRITC-Dextran diffused ±SEM (n=6; *p<0.05 (−CT v +CT, One way ANOVA and Newman-Keul's test)). […] In contrast, CTRΔESS expression had little effect on PCP in the presence or absence of CT.

[3] = system: PC-3CTRΔESS cells; experiment: as above
Procedure: as §1, §2

calcitonin [CT]
time to translocation of ZO-1 ([1]; CT 50 nM): ≤ 1 min | time to translocation of claudin-3 ([1]; CT 50 nM): 30 min | time to translocation of occludin ([1]; CT 50 nM): after ten min | localization of CTR, ZO-1 and claudin-3 (immunofluorescence) ([1]; PC-3CTRwt cells, 50 nM CT, 30 min): loss of these proteins at cell-cell contacts and their internalization | endocytosis of ZO-1, claudin 3 or occludin ([1]; cells expressing CTRΔESS or ZO-1ΔPDZ3, CT 50 nM): could not induce endocytosis | PCP [2]: did not alter it | PCP at multiple CT concentrations ([3]; all tested concentrations): did not alter PCP | PCP ([3]; presence or absence of 50 nM CT): little effect

Source: patent US9765115B2, “Inhibitors of metastasis, methods of generating such inhibitors and their therapeutic applications” (Board of Supervisors of Louisiana State University acting …, priority 2011, dated 2017)
